The term EC50 denotes the concentration giving half of the maximal effect.

Where a name gives a salt, the structure may show the parent alone. Some results are limits rather than exact numbers.

This note sets out measurements from patent US10604509B2, “Nrf2 regulators” (GlaxoSmithKline Intellectual Property Development Limited, priority 2015, dated 2020).

For the assay, the system named is NQO1 specific enzyme activity in BEAS-2B cells. Nature of the assay: BEAS-2B NQO1 MTT assay. The note with it: Homo sapiens, BEAS-2B, 48 h, BEAS-2B cells, 48 hours with compound, MTT readout; read-out: EC50 of NQO1 specific activity induction. It counts as cell-based. An outline of the steps:
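BEAS-2B cells treated with compound 48 h at 37° C, 5% CO2, then lysed; NQO1 activity in lysate measured kinetically by MTT cocktail at Absorbance 570 nm over 30 min. EC50 for induction from Delta OD/min versus log concentration, 3-parameter fit; Cell Titer Glo run on lysate aliquot.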
(In general: Tetrazolium dyes change colour on reduction, which living cells bring about.)
Take `CC[C@@H]1CN(Cc2cc([C@H](c3ccc4c(nnn4CC)c3C)C(C)(C)C(=O)O)ccc2C)Cc2cnccc2O1` [Example 189, (R)-3-(3-(((R)-2-ethyl-2,3-dihydropyrido[3,4-f][1,4]oxazepin-4(5H)-yl)methyl)-4-methylphenyl)-3-(1-ethyl-4-methyl-1H-benzo[d][1,2,3]triazol-5-yl)-2,2-dimethylpropanoic Acid]: the half-maximal effective concentration (EC50) was in the range of 1 to 10 nM.
Consider `COc1cc(C(CC(=O)O)c2ccc(Cl)c(CN3CCCC(n4cccn4)C3)c2)c(C)c2nnn(C)c12` (stereo not shown) [Example 164, 3-(3-((3-(1H-pyrazol-1-yl)piperidin-1-yl)methyl)-4-chlorophenyl)-3-(7-methoxy-1,4-dimethyl-1H-benzo[d][1,2,3]triazol-5-yl)propanoic Acid, Formic Acid Salt], for which the 50% effective concentration (EC50) lay in the range of 100 to 1000 nM.
On to `CCC1CN(Cc2cc(C(CC(=O)O)c3ccc4c(nnn4C)c3C)ccc2C)Cc2c(Cl)cccc2O1` (stereo not shown) [Example 88, 3-(3-((6-Chloro-2-ethyl-2,3-dihydrobenzo[f][1,4]oxazepin-4(5H)-yl)methyl)-4-methylphenyl)-3-(1,4-dimethyl-1H-benzo[d][1,2,3]triazol-5-yl)propanoic acid], for which the concentration giving a half-maximal response (EC50) was in the range of 100 to 1000 nM.
Then `Cc1cc2c(cn1)CN(Cc1cc(C(CC(=O)O)c3ccc4c(nnn4C)c3C)ccc1C)CC(C)(C)O2` (stereo not shown) [Example 108, 3-(1,4-dimethyl-1H-benzo[d][1,2,3]triazol-5-yl)-3-(4-methyl-3-((2,2,8-trimethyl-2,3-dihydropyrido[3,4-f][1,4]oxazepin-4(5H)-yl)methyl)phenyl)propanoic Acid, Formic Acid Salt], with 1000 to 10000 nM; and `Cc1ccc(C(c2ccc3c(nnn3C)c2C)C(C)(C)C(=O)O)cc1Cn1ccnc1CC1CCCCC1` (stereo not shown) [Example 143, 3-(3-((2-(Cyclohexylmethyl)-1H-imidazol-1-yl)methyl)-4-methylphenyl)-3-(1,4-dimethy-1H-benzo[d][1,2,3]triazol-5-yl)-2,2-dimethylpropanoic acid, trifluoroacetic acid salt], with 1000 to 10000 nM; and `Cc1c(C(CC(=O)O)c2ccc(Cl)c(CN3CCOc4ccccc4C3)c2)ccc2c1nnn2C` (stereo not shown) [Example 99, 3-(4-Chloro-3-((2,3-dihydrobenzo[f][1,4]oxazepin-4(5H)-yl)methyl)phenyl)-3-(1,4-dimethyl-1H-benzo[d][1,2,3]triazol-5-yl)propanoic Acid, Formic Acid Salt], with 1000 to 10000 nM.
For `Cc1ccc(C(CC(=O)O)c2ccc3c(nnn3C)c2C)cc1CN1CCCC(n2cccn2)C1` (stereo not shown) [Example 9, Ammonium 3-(3-((3-(1H-pyrazol-1-yl)piperidin-1-yl)methyl)-4-methylphenyl)-3-(1,4-dimethyl-1H-benzo[d][1,2,3]triazol-5-yl)propanoate] the value was 1000 to 10000 nM.
Regarding `Cc1ccc(C(c2ccc3c(nnn3C)c2C)C2(C(=O)O)CC2)cc1CN1Cc2cnccc2OC(C)(C)C1` (stereo not shown) [Example 211, 1-((1,4-Dimethyl-1H-benzo[d][1,2,3]triazol-5-yl)(3-((2,2-dimethyl-2,3-dihydropyrido[3,4-f][1,4]oxazepin-4(5H)-yl)methyl)-4-methylphenyl)methyl)cyclopropanecarboxylic acid, Trifluoroacetic Acid Salt], the 50% effective concentration (EC50) was in the range of 10 to 100 nM.
For `Cc1ccc([C@@H](c2ccc3c(nnn3C)c2C)C(C)(C)C(=O)O)cc1Cn1ccnc1CC1CCCCCC1` [Example 235, (S)-3-(3-((2-(Cycloheptylmethyl)-1H-imidazol-1-yl)methyl)-4-methylphenyl)-3-(1,4-dimethyl-1H-benzo[d][1,2,3]triazol-5-yl)-2,2-dimethylpropanoic Acid] the value was less than 1 nM; for `COc1ccc2c(c1)OC(C)(C)CN(Cc1cc([C@@H](CC(=O)O)c3ccc4c(nnn4C)c3C)ccc1C)C2` [Example 167, (R)-3-(1,4-Dimethyl-1H-benzo[d][1,2,3]triazol-5-yl)-3-(3-((8-methoxy-2,2-dimethyl-2,3-dihydrobenzo[f][1,4]oxazepin-4(5H)-yl)methyl)-4-methylphenyl)propanoic acid], 10 to 100 nM.
